Assay results as given in ChEMBL document CHEMBL5058564, “EUbOPEN Chemogenomics Library 2 (Incucyte)” (2022).

Experiments:
Format in all cases: toxicity, cell-based
[1] = test system: HEK-293T; assay: Incucyte cell viability with HEK293T; conditions: human, 10 µM, compound concentration 10 uM
[2] = test system: Fibroblast; assay: Incucyte cell viability with human fibroblast; conditions: 10 µM, compound concentration 10 uM
[3] = test system: U2OS; assay: Incucyte cell viability with U2OS; conditions: human, 10 µM, compound concentration 10 uM
[4] = 6 h, replicate number 1, timepoint 6 hours
[5] = 6 h, replicate number 2, timepoint 6 hours
[6] = 12 h, replicate number 1, timepoint 12 hours
[7] = 12 h, replicate number 2, timepoint 12 hours
[8] = 18 h, replicate number 1, timepoint 18 hours
[9] = 18 h, replicate number 2, timepoint 18 hours
[10] = 24 h, replicate number 1, timepoint 24 hours
[11] = 24 h, replicate number 2, timepoint 24 hours
[12] = 0 h, replicate number 1, timepoint 0 hours
[13] = 0 h, replicate number 2, timepoint 0 hours
Also: unitless GR value; below 1 slowed growth and below 0 cell loss.

Row | SMILES | Growth Rate [1, 7] | Growth Rate [1, 8] | Growth Rate [1, 9] | Growth Rate [1, 10] | Growth Rate [1, 11] | Growth Rate [2, 4] | Growth Rate [2, 5] | Growth Rate [2, 6] | Growth Rate [2, 7] | Growth Rate [2, 8] | Growth Rate [2, 9] | Growth Rate [2, 10] | Growth Rate [2, 11] | Growth Rate [3, 5] | Growth Rate [3, 6] | Growth Rate [3, 9] | Growth Rate [3, 10] | Growth Rate [3, 11] | Growth Rate [2, 12] | Growth Rate [1, 13] | further results
1 | OCCN1CCN(CCCN2c3ccccc3Sc3ccc(Cl)cc32)CC1 [PERPHENAZINE] | 0.45 | 0.76 | 0.67 | 0.41 | 0.76 | -0.61 | 0.55 | -0.48 | 0.42 | -0.34 | 0.44 | -0.08 | 0.53 | 0.28 | 0.85 | 0.64 | 1 | 0.69 |  |  | Growth Rate [1, 4]: 0.12; Growth Rate [1, 5]: 0.25; Growth Rate [1, 6]: 0.59; Growth Rate [3, 7]: 0.55
2 | Cc1ccc(F)cc1C(=O)Nc1ccc(C(=O)N2Cc3cccn3Cc3ccccc32)c(Cl)c1 [LIXIVAPTAN] |  |  |  |  |  | 0.63 | 0.2 |  | 0.59 |  | 0.75 | 0.45 |  | 0.89 |  | 0.89 | 0.9 | 0.94 | -0.13 |  | Growth Rate [1, 12]: 0.91; Growth Rate [3, 12]: -0.09; Growth Rate [3, 4]: 0.32
3 | N#Cc1c(Oc2cccc(OS(=O)(=O)CCCC(F)(F)F)c2)cccc1C(F)(F)F | 0.28 | -0.01 | 0.31 | 0.06 | 0.55 | -0.53 | -0.47 | -0.11 | -0.08 | -0.21 | 0.02 | -0.18 | 0 |  | 0.86 | 0.81 |  | 0.96 | 0.09 |  | Growth Rate [1, 4]: -0.16; Growth Rate [1, 5]: 0.24; Growth Rate [1, 6]: 0; Growth Rate [3, 13]: 0.57; Growth Rate [3, 7]: 0.82
4 | Cc1cnc(-c2cc(N3CCN(C(=O)CCS(C)(=O)=O)CC3)ncc2Cl)c(C)c1 |  |  |  |  |  | 0.66 | 0.05 | 0.76 | 0.17 | 0.94 | 0.71 | 0.94 |  | 0.63 |  | 0.92 |  |  |  | 0.96 | Growth Rate [1, 12]: 0.65
5 | Cc1sc2c(c1C)C(c1ccc(Cl)cc1)=N[C@H](CC(=O)OC(C)(C)C)c1nnc(C)n1-2 | 0.95 | 0.85 | 0.87 | 0.81 | 0.86 | -0.25 |  | 0.45 |  | 0.98 |  | 0.98 |  |  | 0.95 |  | 0.92 |  |  | 0.63 | Growth Rate [1, 12]: 0.38; Growth Rate [3, 4]: 0.83; Growth Rate [3, 8]: 0.97
6 | Nc1nccc(-c2ccn3c(N)nccc23)n1 |  | 0.93 |  | 0.76 | 1 |  |  |  | 0.84 |  | 0.76 |  | 0.72 | 0.89 |  | 0.85 | 0.98 | 0.82 | -0.59 | 0.28 | Growth Rate [1, 12]: -0.7; Growth Rate [2, 13]: -0.24; Growth Rate [3, 12]: 0.63; Growth Rate [3, 13]: 0.39; Growth Rate [3, 7]: 0.92
7 | Cc1sc2c(c1C)C(c1ccc(Cl)cc1)=N[C@@H](CC(=O)NCCCCCCCCNC(=O)COc1cccc3c1C(=O)N(C1CCC(=O)NC1=O)C3=O)c1nnc(C)n1-2 (some centres undefined) | 0.04 | 0.02 | -0.02 | 0.01 | -0.06 | -0.54 | -0.38 | -0.48 | -0.2 | -0.47 | -0.01 | -0.37 | -0.03 |  | 0.7 | 0.72 | 0.4 | 0.7 | 0.46 | 0.68 | Growth Rate [1, 4]: 0.68; Growth Rate [1, 6]: 0.13; Growth Rate [3, 12]: -0.31; Growth Rate [3, 4]: 0.38; Growth Rate [3, 7]: 0.65; Growth Rate [3, 8]: 0.5
8 | O=C(O)CCc1ccc(NCc2cccc(Oc3ccccc3)c2)cc1 [GW9508] |  |  |  | 0.98 |  |  |  | 1 |  |  |  |  |  | 0.91 | 1 | 0.97 |  |  | -0.2 | 0.79 | Growth Rate [2, 13]: 0.43; Growth Rate [3, 13]: 0.8
9 | C[C@H]1[C@H](OC(=O)CCC(=O)O)O[C@@H]2O[C@@]3(C)CC[C@H]4[C@H](C)CC[C@@H]1[C@@]24OO3 [ARTESUNATE] | -0.1 | -0.07 | -0.18 | -0.08 | -0.16 |  |  | 0.22 | 0.75 | -0.31 | 0.04 | -0.42 | -0.06 | 0.72 |  | 0.75 | 0.98 | 0.81 | 0.98 | 0.58 | Growth Rate [1, 4]: 0.56; Growth Rate [1, 6]: -0.23; Growth Rate [2, 13]: 0.19; Growth Rate [3, 12]: 0.12; Growth Rate [3, 13]: 0.07; Growth Rate [3, 4]: 0.66; Growth Rate [3, 7]: 0.85; Growth Rate [3, 8]: 0.86
